Measured values reported in ChEMBL document CHEMBL4610100, “Jatrophane Diterpenoids from Euphorbia esula as Inhibitors of RANKL-Induced Osteoclastogenesis” (J Nat Prod, 2020).

Tested on: BMDM
Assay: Anti-osteoporosis activity in C57BL/6 mouse bone marrow macrophages assessed as inhibition of M-CSF/GST-tagged recombinant RANKL-induced osteoclast differentiation measured after 5 days by TRAP staining based assay
Format: functional, cell-based
Conditions: C57BL/6, BMDM, 120 h

IC50 | SMILES
10 µM | C=C1[C@H](OC(=O)c2ccccc2)[C@@H](O)[C@@H](OC(=O)c2cccnc2)C(C)(C)/C=C/[C@@H](C)C(=O)[C@@]2(O)C[C@H](C)[C@H](OC(C)=O)[C@@H]2[C@H]1OC(C)=O
> 10 µM | C=C1[C@H](OC(=O)c2ccccc2)[C@@H](OC(C)=O)[C@@H](OC(=O)c2cccnc2)C(C)(C)/C=C/[C@@H](C)C(=O)[C@@]2(O)C[C@H](C)[C@H](OC(C)=O)[C@@H]2[C@H]1OC(C)=O
